Assay results from PubChem BioAssay AID248 (DTP/NCI, 2004).
Values joined by “and” are separate entries in the source; they are usually repeats but may differ in a detail not shown here. Equal entries are not always repeated. Toxic doses and inconclusive results are not listed. No stated cut-off is given here; in the data, active means T/C of 150% or more; inactive means T/C below 125%.

System: L1210 leukemia ip in BDF1 mice, survival T/C
Test: NCI In Vivo Anticancer Drug Screen. Data for tumor model L1210 Leukemia (intraperitoneal) in B6D2F1 (BDF1) mice
Conditions: endpoint: mean survival time, higher = longer survival
Procedure, shortened: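 Survival endpoint. Drug-treated group vs vehicle group, expressed as T divided by C. Tumor passaged by transplantation.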

Measured: T/C

COC(=O)[C@@H](O)[C@](O)(CCC(C)C)C(=O)O[C@@H]1C(OC)=C[C@]23CCCN2CCc2cc4c(cc2[C@H]13)OCO4
inactive: dose: 0.12 mg/kg/injection, schedule: Q03HX024 (ip), vehicle: saline 98 % of control | dose: 0.25 mg/kg/injection, schedule: Q01DX009 (ip), vehicle: saline 108 % of control | dose: 0.25 mg/kg/injection, schedule: Q03HX008 (ip), vehicle: saline 106 % of control | dose: 0.25 mg/kg/injection, schedule: Q03HX016 (ip), vehicle: saline 101 % of control | dose: 0.25 mg/kg/injection, schedule: Q03HX024 (ip), vehicle: saline 107 % of control | dose: 0.5 mg/kg/injection, schedule: Q01DX006 (iv), vehicle: saline 100 % of control | dose: 0.5 mg/kg/injection, schedule: Q01DX009 (ip), vehicle: saline 107 % of control | dose: 0.5 mg/kg/injection, schedule: Q01DX009 (oral), vehicle: saline 103 % of control | dose: 0.5 mg/kg/injection, schedule: Q01DX009 (sc), vehicle: saline 104 % of control | dose: 0.5 mg/kg/injection, schedule: Q03HX008 (ip), vehicle: saline 104 % of control | dose: 0.5 mg/kg/injection, schedule: Q03HX016 (ip), vehicle: saline 108 % of control | dose: 0.5 mg/kg/injection, schedule: Q03HX024 (ip), vehicle: saline 100 % of control | dose: 0.93 mg/kg/injection, schedule: Q01DX009 (ip), vehicle: water 106 % of control | dose: 1.0 mg/kg/injection, schedule: Q01DX006 (iv), vehicle: saline 102 % of control | dose: 1.0 mg/kg/injection, schedule: Q01DX009 (ip), vehicle: saline 115 % of control | dose: 1.0 mg/kg/injection, schedule: Q01DX009 (oral), vehicle: saline 93 % of control | dose: 1.0 mg/kg/injection, schedule: Q01DX009 (sc), vehicle: saline 104 % of control | dose: 1.0 mg/kg/injection, schedule: Q03HX008 (ip), vehicle: saline 101 % of control and 106 % of control | dose: 1.0 mg/kg/injection, schedule: Q03HX016 (ip), vehicle: saline 101 % of control and 106 % of control | dose: 1.0 mg/kg/injection, schedule: Q03HX024 (ip), vehicle: saline 100 % of control and 114 % of control | dose: 1.0 mg/kg/injection, schedule: Q04DX003 (ip), vehicle: saline 106 % of control | dose: 1.85 mg/kg/injection, schedule: Q01DX009 (ip), vehicle: water 109 % of control | dose: 1.87 mg/kg/injection, schedule: Q01DX009 (ip), vehicle: water 109 % of control | dose: 1.88 mg/kg/injection, schedule: Q01DX009 (ip), vehicle: water 114 % of control | dose: 2.0 mg/kg/injection, schedule: Q01DX001 (ip), vehicle: saline 102 % of control | dose: 2.0 mg/kg/injection, schedule: Q01DX001 (iv), vehicle: saline 102 % of control | dose: 2.0 mg/kg/injection, schedule: Q01DX001 (oral), vehicle: saline 97 % of control | dose: 2.0 mg/kg/injection, schedule: Q01DX001 (sc), vehicle: saline 104 % of control | dose: 2.0 mg/kg/injection, schedule: Q01DX006 (iv), vehicle: saline 103 % of control and 108 % of control | dose: 2.0 mg/kg/injection, schedule: Q01DX009 (ip), vehicle: saline 107 % of control and 111 % of control | dose: 2.0 mg/kg/injection, schedule: Q01DX009 (oral), vehicle: saline 108 % of control | dose: 2.0 mg/kg/injection, schedule: Q01DX009 (sc), vehicle: saline 106 % of control | dose: 2.0 mg/kg/injection, schedule: Q03HX008 (ip), vehicle: saline 105 % of control and 113 % of control | dose: 2.0 mg/kg/injection, schedule: Q03HX016 (ip), vehicle: saline 96 % of control and 107 % of control | dose: 2.0 mg/kg/injection, schedule: Q03HX024 (ip), vehicle: saline 104 % of control | dose: 2.0 mg/kg/injection, schedule: Q04DX003 (ip), vehicle: saline 106 % of control | dose: 2.0 mg/kg/injection, schedule: Q08DX002 (ip), vehicle: saline 98 % of control | dose: 4.0 mg/kg/injection, schedule: Q01DX001 (ip), vehicle: saline 106 % of control | dose: 4.0 mg/kg/injection, schedule: Q01DX001 (iv), vehicle: saline 101 % of control | dose: 4.0 mg/kg/injection, schedule: Q01DX001 (oral), vehicle: saline 100 % of control | dose: 4.0 mg/kg/injection, schedule: Q01DX001 (sc), vehicle: saline 114 % of control | dose: 4.0 mg/kg/injection, schedule: Q01DX006 (iv), vehicle: saline 103 % of control and 111 % of control | dose: 4.0 mg/kg/injection, schedule: Q01DX009 (ip), vehicle: saline 116 % of control and 124 % of control | dose: 4.0 mg/kg/injection, schedule: Q01DX009 (oral), vehicle: saline 113 % of control and 114 % of control and 120 % of control | dose: 4.0 mg/kg/injection, schedule: Q01DX009 (sc), vehicle: saline 113 % of control | dose: 4.0 mg/kg/injection, schedule: Q03HX008 (ip), vehicle: saline 114 % of control | dose: 4.0 mg/kg/injection, schedule: Q03HX016 (ip), vehicle: saline 103 % of control | dose: 4.0 mg/kg/injection, schedule: Q04DX003 (ip), vehicle: saline 110 % of control and 113 % of control | dose: 4.0 mg/kg/injection, schedule: Q08DX002 (ip), vehicle: saline 108 % of control | dose: 5.0 mg/kg/injection, schedule: Q01DX009 (ip), vehicle: saline 116 % of control | dose: 8.0 mg/kg/injection, schedule: Q01DX001 (ip), vehicle: saline 104 % of control and 105 % of control | dose: 8.0 mg/kg/injection, schedule: Q01DX001 (iv), vehicle: saline 106 % of control and 115 % of control | dose: 8.0 mg/kg/injection, schedule: Q01DX001 (oral), vehicle: saline 100 % of control | dose: 8.0 mg/kg/injection, schedule: Q01DX001 (sc), vehicle: saline 110 % of control and 115 % of control | dose: 8.0 mg/kg/injection, schedule: Q01DX006 (iv), vehicle: saline 120 % of control | dose: 8.0 mg/kg/injection, schedule: Q01DX009 (oral), vehicle: saline 114 % of control | dose: 8.0 mg/kg/injection, schedule: Q01DX009 (sc), vehicle: saline 122 % of control | dose: 8.0 mg/kg/injection, schedule: Q04DX003 (ip), vehicle: saline 101 % of control and 107 % of control | dose: 8.0 mg/kg/injection, schedule: Q08DX002 (ip), vehicle: saline 110 % of control | dose: 10.0 mg/kg/injection, schedule: Q01DX009 (ip), vehicle: saline 116 % of control | dose: 16.0 mg/kg/injection, schedule: Q01DX001 (ip), vehicle: saline 108 % of control and 112 % of control | dose: 16.0 mg/kg/injection, schedule: Q01DX001 (iv), vehicle: saline 106 % of control and 107 % of control | dose: 16.0 mg/kg/injection, schedule: Q01DX001 (oral), vehicle: saline 107 % of control and 112 % of control | dose: 16.0 mg/kg/injection, schedule: Q01DX001 (sc), vehicle: saline 111 % of control and 118 % of control | dose: 16.0 mg/kg/injection, schedule: Q01DX006 (iv), vehicle: saline 122 % of control | dose: 16.0 mg/kg/injection, schedule: Q01DX009 (sc), vehicle: saline 89 % of control | dose: 16.0 mg/kg/injection, schedule: Q04DX003 (ip), vehicle: saline 100 % of control | dose: 16.0 mg/kg/injection, schedule: Q08DX002 (ip), vehicle: saline 106 % of control and 111 % of control | dose: 20.0 mg/kg/injection, schedule: Q01DX009 (ip), vehicle: saline 115 % of control | dose: 32.0 mg/kg/injection, schedule: Q01DX001 (ip), vehicle: saline 110 % of control | dose: 32.0 mg/kg/injection, schedule: Q01DX001 (oral), vehicle: saline 108 % of control and 118 % of control | dose: 32.0 mg/kg/injection, schedule: Q04DX003 (ip), vehicle: saline 107 % of control | dose: 32.0 mg/kg/injection, schedule: Q08DX002 (ip), vehicle: saline 102 % of control
